The source of these data is patent US4681895A, “Novel guanidinomethylcyclohexanecarboxylic acid compounds and anti-ulcer drug containing the same” (Kanebo, Ltd., priority 1985, dated 1987).

Bounds are passed on as bounds.

Data set [1] has as its system stress-induced gastric ulcer. Briefly: Activity against stress-induced gastric ulcer. To be noted: Rattus norvegicus; oral, rats, 15 min before stress cage in 23° C. water bath for 17 hours; read-out: ED50, Anti-stress-induced ulcer. In kind it is in vivo, Male Sprague-Dawley rats. The method, then:
The experiment was carried out by a modified method of that of Takagi and Okabe [cf. Jap. J. Pharmacol., 18, 9 (1968)]. Male Sprague-Dawley rats weighing 180-200 g (8 week old), 6-8 per group, were fasted for 24 hours and administered orally with each test compound which was suspended in 1% arabic gum aqueous solution. After 15 minutes, the animals were placed in a stress cage and immerse vertically to the level of the xiphoid process in a water bath kept at 23° C. for 17 hours. The animals were killed by ether inhalation. The stomach of each rat was removed, inflated by injecting 12 ml of 1% formalin, and immersed in 1% formalin for 15 minutes. The stomach was then incised along the greater curvature and examined for lesions in the glandular portion under a dissecting microscope. The length (mm) of a ulcer was totalled on each animal and it was indicated as the ulcer index. The mean ulcer index (m) in each test compound-treated group was calculated. The control animals received the same procedure without administering of test compound and the mean ulcer index (l) was calculated. Inhibitory ratio of test compound is expressed as follows. Inhibitory ratio (%)=(1-m/l)×100 wherein l is mean ulcer index in control group, and m is mean ulcer index in test compound-treated group. The anti-ulcer activity of test compound (ED50) was calculated by dose-response curve.

The subject of data set [2] is ethanol-induced gastric ulcer. Briefly: Activity against ethanol-induced gastric ulcer. In kind it is in vivo, Male Sprague-Dawley rats. To be noted: Rattus norvegicus; oral, rats, 30 min before 99.5% ethanol 1 ml orally; killed 1 hour after; read-out: ED50, Anti-ethanol-induced ulcer. The method, then: (§1) The same test compounds as used in Experiment 1 were used.
The experiment was carried out according to the method of Robert et al. [cf. Gastroenterology, 77, 433 (1979)].
Male Sprague-Dawley rats weighing 180-200 g (8 week old), 6-8 per group, were fasted for 24 hours and administered orally with each test compound which was suspended in 1% arabic gum aqueous solution. After 30 minutes, 99.5% ethanol (as a necrotizing agent) was given orally to the rats in a volume of 1 ml. The animals were killed by ether inhalation 1 hour after receiving of ethanol. The stomach of each rat was removed, inflated by injecting 12 ml of 1 % formalin, and immersed in 1% formalin for 15 minutes. Afterward, the mean ulcer index and inhibitory ratio were calculated by the same method as in Experiment 1, and then the ED50 was calculated by dose-response curve.

A further data set concerns Male ddY mice. The data set can be described thus: Test of acute toxity [minimum lethal dose (MLD)]. The format is in vivo. To be noted: oral, mice fasted 17 hours, observed for 7 days. How it is done:
as §1
Male ddY mice weighing 20-22 g (4 week old), 5 per group, were fasted for 17 hours and administered orally with each test compound which was suspended in 1% arabic gum aqueous solution.

Data set [3] concerns indomethacin-induced gastric ulcer. The data set can be described thus: Activity against indomethacin-induced gastric ulcer. The format is in vivo, Male Sprague-Dawley rats. The conditions noted are these: Rattus norvegicus; oral, rats, 15 min before indomethacin 30 mg/kg subcutaneously; killed 5 hours after; read-out: ED50, Anti-indomethacin-induced ulcer. How it is done: as §1
The experiment was carried out by a modified method of that of Okabe et al. [cf. Dig. Dis. Sci., 28, 1034 (1983)].
Male Sprague-Dawley rats weighing 180-200 g (8 week old), 6-8 per group, were fasted for 24 hours and administered orally with each test compound which was suspended in 1% arabic gum aqueous solution. After 15 minutes, indomethacin (in a solution in 3% sodium bicarbonate solution) was given subcutaneously to the rats at a dose of 30 mg/kg. The animals were killed by ether inhalation 5 hours after receiving of indomethacin. The stomach of each rat was removed, inflated by injecting 12 ml of 1% formalin, containing 0.1% pontamine sky blue, and immersed in 1% formalin for 15 minutes. Afterward, the mean ulcer index and inhibitory ratio were calculated by the same method as in Experiment 1, and then ED50 was calculated by dose response curve.

The test system of the next data set is peptic ulcers. The conditions noted are these: disclosed in Japanese Patent First Publications; cited from earlier work.

The ED50 is the midpoint of the dose-response relation.

On to `CCOC(=O)c1ccccc1NC(=O)[C@H]1CC[C@H](CNC(=N)N)CC1.Cl.O` [A, N-(o-Ethoxycarbonylphenyl)-trans-4-guanidinomethylcyclohexanecarboxamide hydrochloride monohydrate], for which the figures for the ED50 in data set [1], in data set [2] and in data set [3] were 108 mg/kg, 36 mg/kg and 33 mg/kg, respectively. The “MLD (acute toxicity)” value in the data set with Male ddY mice is listed as > 3,000 mg/kg.

Regarding `COC(=O)c1ccccc1NC(=O)[C@H]1CC[C@H](CNC(=N)N)CC1.Cl.O` [B, N-(o-Methoxycarbonylphenyl)-trans-4-guanidinomethylcyclohexanecarboxamide hydrochloride monohydrate], the ED50 in data set [1] came out at 118 mg/kg; in data set [2] it was 42 mg/kg; in data set [3] it was 40 mg/kg. Also, the “MLD (acute toxicity)” value in the data set on Male ddY mice was > 3,000 mg/kg.

In the case of `Cl.N=C(N)NC[C@H]1CC[C@H](C(=O)Nc2ccccc2C(=O)O)CC1.O` [C, N-(o-Carboxyphenyl)-trans-4-guanidinomethylcyclohexanecarboxamide hydrochloride monohydrate], the values for the ED50 in data set [1], in data set [2] and in data set [3] were 114 mg/kg, 41 mg/kg and 37 mg/kg, respectively. Moreover, in the data set with Male ddY mice, the “MLD (acute toxicity)” value is on record as > 3,000 mg/kg.

For the compound `Cl.N=C(N)NC[C@H]1CC[C@H](C(=O)Oc2ccccc2C(=O)OCc2ccccc2)CC1` [X, Trans-4-guanidinomethylcyclohexanecarboxylic acid o-benzyloxycarbonylphenylester hydrochloride, reference compound], the results for the ED50 in data set [1], in data set [2] and in data set [3] were 376 mg/kg, 108 mg/kg and 103 mg/kg, respectively. Also, the “anti-ulcer activity, in words” value in the data set with peptic ulcers is recorded as “shows an anti-ulcer activity”. The “MLD (acute toxicity)” value with Male ddY mice was > 3,000 mg/kg.

In the case of `Cl.N=C(N)NC[C@H]1CC[C@H](C(=O)Nc2ccccc2)CC1` [Y, N-Phenyl-trans-4-guanidinomethylcyclohexanecarboxamide hydrochloride, reference compound], the results for the 50% effective dose (ED50) in data set [1], in data set [2] and in data set [3] were 135 mg/kg, 199 mg/kg and 86 mg/kg, respectively. For the same compound, in the data set on peptic ulcers, the “anti-ulcer activity, in words” value is listed as “shows an anti-ulcer activity”. Also, the “MLD (acute toxicity)” value with Male ddY mice is < 1,000 mg/kg.
